Laboratory results from US10844049B2, “GLP-1R agonists and uses thereof” (QILU REGOR THERAPEUTICS INC., priority 2018, dated 2020).

Target: GLP1R (Homo sapiens, UniProt P43220)
Test: GLP1R cAMP HTRF assay, HEK293/GLP-1R/CRE/Luc (HEK293T cells)
Assay type: cell-based
Details: read-out: EC50
Protocol: GLP-1R-mediated agonist activity was determined with a cell-based functional assay utilizing an HTRF (Homogeneous Time-Resolved Fluorescence) cAMP detection kit (cAMP Dynamic 2 Assay Kit; CisBio cat #62AM4PEC) that measures cAMP levels in the cell. The method is a competitive immunoassay between native cAMP produced by the cells and exogenous cAMP labeled with the dye d2. The tracer binding is visualized by a mAb anti-cAMP labeled with Cryptate. The specific signal (i.e., energy transfer) is inversely proportional to the concentration of cAMP in either standard or experimental sample.
A cell line stably expressing the receptor was isolated.
Varying concentrations of each compound to be tested (in DMSO) were diluted in DMSO to obtain 200× compound working solution first and then 50 nl compounds were added to a white 384-well assay plate (Greiner 784075) with ECHO. The final DMSO concentration was 0.5%. The compound concentration range may be adjusted at any time.
Cells were removed from cryopreservation, re-suspended in 5 mL of Dulbecco's Phosphate Buffered Saline (DPBS-Sigma Cat # D8537) and centrifuged at 900 g for 5 min at 22° C. The cell pellet was then re-suspended in 1 mL of assay buffer [DPBS with 500 μM IBMX (Sigma #15879) and 0.1% BSA (Sigma # A1933). IBMX and BSA were freshly added on the day of assay]. A 10 μL sample of the cell suspension was counted on an Invitrogen Countess II to determine cell viability and cell count per mL. The remaining cell suspension was then adjusted with assay buffer to deliver 1000 viable cells per well using a Matrix Combi Multidrop reagent dispenser. 10 μL cell suspensions were added to each well of the assay plate which already contains compound. The plate was sealed and incubated at 37° C. with 5% CO2 for 30 minutes.
Following the 30 minute incubation, 5 μL of labeled d2 cAMP and 5 μL of anti-cAMP antibody (both diluted 1:20 in cell lysis buffer; as described in the manufacturer's assay protocol) were added to each well of the assay plate. The plates w ere then incubated at room temperature and after 60 minutes, changes in the HTRF signal were read with an Envision multi-label plate reader using excitation of 330 nm and emissions of 615 and 665 nm. Raw data were converted to nM cAMP by interpolation from a cAMP standard curve (as described in the manufacturer's assay protocol) and the percent effect was determined relative to a saturating concentration of the full agonist GLP-17-37 (10 nM) included on each plate. EC50 determinations were made from agonist dose-response curves analyzed with a curve fitting program using a 4-parameter logistic dose response equation.
3) Anti-cAMP antibody-cryptate working solution preparation • c) The lyophilisate was reconstituted with appropriate amount of distilled water according to manufacturer's instruction to make working stock which can be aliquoted and frozen (−20° C.). • d) The working stock solution was diluted 1:20 in the conjugate and lysis buffer before use. Procedures Procedures for Cell Suspension Preparation • 1. Frozen cells were thawed very briefly in a 37° C. water bath under sterile conditions until just before ice completely melt (for about 1 minute) with a continuous agitation. Caution was taken because a longer incubation could result in cell death. • 2. DMSO was removed from the media by carefully transferring thawed cells to a sterile 15/50 mL tube, filling a tube with 10-50 mL of complete media pre-warmed to 37° C., and allowing the cells to sit 5 min before centrifuging at 900 rpm for 5 minutes for cell collection. • 3. The cells were resuspended with assay buffer. • 4. For stable GLP1-R assay, the optimized cell density is 1000 cells/well. Caution was taken because cell density optimization was crucial and needed to be optimized in different laboratories. The level of cAMP produced by the cells must fall within the linear range of the standard curve.

GLP1R, sequence (P43220 24-463): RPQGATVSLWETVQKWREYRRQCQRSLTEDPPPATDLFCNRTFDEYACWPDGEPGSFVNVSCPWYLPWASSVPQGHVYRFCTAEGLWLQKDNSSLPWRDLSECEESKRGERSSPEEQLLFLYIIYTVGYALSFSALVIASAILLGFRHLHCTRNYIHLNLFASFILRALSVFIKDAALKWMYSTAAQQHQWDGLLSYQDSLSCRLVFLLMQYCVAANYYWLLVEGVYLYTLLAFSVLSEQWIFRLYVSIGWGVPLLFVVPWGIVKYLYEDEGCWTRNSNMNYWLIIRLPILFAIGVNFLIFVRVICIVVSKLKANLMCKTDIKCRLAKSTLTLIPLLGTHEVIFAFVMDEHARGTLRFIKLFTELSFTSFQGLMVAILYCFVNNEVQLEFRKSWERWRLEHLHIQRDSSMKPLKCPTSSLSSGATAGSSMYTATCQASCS

| SMILES | EC50 |
| --- | --- |
| O=C(O)c1ccc2nc(CN3CC=C(c4cccc(OCc5cc(Cl)cc(Cl)c5)n4)CC3)n(C[C@@H]3CCO3)c2c1 [Compound 139, (S)-2-((6-((3,5-dichlorobenzyl)oxy)-3′,6′-dihydro-[2,4′-bipyridin]-1′(2′H)-yl)methyl)-1-(oxetan-2-ylmethyl)-1H-benzo[d]imidazole-6-carboxylic acid] | ≤ 150 nM |
| O=C(O)c1ccc2nc(CN3CC=C(c4cc(F)c(F)c(OCc5ccc(C#CC6CC6)cc5F)c4)CC3)n(C[C@@H]3CCO3)c2c1 [Compound 203, (S)-2-((4-(3-(4-(cyclopropylethynyl)-2-fluorobenzyloxy)-4,5-difluorophenyl)-5,6-dihydropyridin-1(2H)-yl)methyl)-1-(oxetan-2-ylmethyl)-1H-benzo[d]imidazole-6-carboxylic acid] | ≤ 150 nM |
| O=C(O)c1ccc2nc(CN3CC=C(c4cccc(OCc5ccc(Cl)cc5Cl)n4)CC3)n(C[C@@H]3CCO3)c2c1 [Compound 114, (S)-2-((6-((2,4-dichlorobenzyl)oxy)-3′,6′-dihydro-[2,4′-bipyridin]-1′(2′H)-yl)methyl)-1-(oxetan-2-ylmethyl)-1H-benzo[d]imidazole-6-carboxylic add] | ≤ 15 nM |
| O=C(O)c1ccc2nc(CN3CC=C(c4cc(F)c(F)c(OCc5ccc(Cl)cc5F)c4)CC3)n(C[C@@H]3CCO3)c2c1 [Compound 41, (S)-2-((4-(3-(4-chloro-2-fluorobenzyloxy)-4,5-difluorophenyl)-5,6-dihydropyridin-1(2H)-yl)methyl)-1-(oxetan-2-ylmethyl)-1 h-benzo[d]imidazole-6-carboxylic acid] | ≤ 15 nM |
| N#Cc1ccc(COc2cccc(N3CCC(Cc4nc5ccc(C(=O)O)cc5n4C[C@@H]4CCO4)CC3)n2)c(F)c1 [Compound 226, (S)-2-((l-(6-((4-cyano-2-fluorobenzyl)oxy)pyridin-2-yl)piperidin-4-yl)methyl)-1-(oxetan-2-ylmethyl)-1H-benzo[d]imidazole-6-carboxylic acid] | ≤ 15 nM |
| O=C(O)c1ccc2nc(CN3CC=C(c4nc(NCc5ccc(Cl)cc5F)c(F)cc4F)CC3)n(C[C@@H]3CCO3)c2c1 [Compound 133, (S)-2-((4-(6-(4-chloro-2-fluorobenzylamino)-3,5-difluoropyridin-2-yl)-5,6-dihydropyridin-1(2H)-yl)methyl)-1-(oxetan-2-ylmethyl)-1H-benzo[d]imidazole-6-carboxylic acid] | ≤ 15 nM |
| O=C(O)c1ccc2nc(CN3CC=C(c4ccnc(OCc5ccc(F)cc5F)n4)CC3)n(C[C@@H]3CCO3)c2c1 [Compound 215, (S)-2-((4-(2-((2H-difluorobenzyl)oxy)pyrimidin-4-yl)-3,6-dihydropyridin-1(2H)-yl)methyl)-1-(oxetan-2-ylmethyl)-1H-benzo[d]imidazole-6-carboxylic acid] | ≤ 150 nM |
| O=C(O)c1ccc2nc(CN3CCN(c4cccc(OCc5ccc(Cl)cc5F)n4)CC3=O)n(C[C@@H]3CCO3)c2c1 [Compound 106, (S)-2-((4-(6-((4-chloro-2-fluorobenzyl)oxy)pyridin-2-yl)-2-oxopiperazin-1-yl)methyl)-1-(oxetan-2-ylmethyl)-1H-benzo[d]imidazole-6-carboxylic add] | ≤ 15 nM |
| O=C(O)c1ccc2nc(CN3CC=C(c4cccc(OCc5ccc(OC(F)(F)F)cc5)n4)CC3)n(C[C@@H]3CCO3)c2c1 [Compound 120, (S)-1-(oxetan-2-ylmethyl)-2-((6-((4-(trifluoromethoxy)benzyl)oxy)-3′,6′-dihydro-[2,4′-bipyridin]-1′(2′H)-yl)methyl)-1H-benzo[d]imidazole-6-carboxylic acid] | ≤ 15 nM |
| O=C(O)c1ccc2nc(CN3CC=C(c4nccc(OCc5ccc(C#CC6CC6)cc5F)n4)CC3)n(C[C@@H]3CCO3)c2c1 [Compound 200, (S)-2-((4-(4-((4-(cyclopropylethynyl)-2-fluorobenzyl)oxy)pyrimidin-2-yl)-3,6-dihydropyridin-1(2H)-yl)methyl)-1-(oxetan-2-ylmethyl)-1H-benzo[d]imidazole-6-carboxylic acid] | ≤ 15 nM |
